Values quoted from earlier work, collected in PubChem BioAssay AID1259409 (Chemical Carcinogenesis Research Information System (CCRIS), 2018).

Test system: rodent chemically induced tumor inhibition, incidence and multiplicity
Experiment: CCRIS tumor inhibitor studies

O=C1O[C@H]([C@@H](O)CO)C(O)=C1O
tumour outcome (control, treated, inhibition, significance) (Carcinogen: DIETHYLNITROSAMINE, 55-18-5, Dose [Inhibitor]: 0, 15 G/L IN DRINKING WATER FOR DURATION OF STUDY BEGINNING 1 D PRIOR TO FIRST CARCINOGEN DOSE (STUDY DURATION: 6 MO), Route [Inhibitor]: ORAL, Species: RAT, Strain/Sex: BD6/FEMALE, Target Tissue: Type of Lesion: ESOPHAGUS: TUMOR, Dose [Carcinogen]: 80 MG/KG BW 1/WK FOR 10 WK, Promoter: NONE USED): 35%, 24%, 31%, not significant | tumour outcome (control, treated, inhibition, significance) (Carcinogen: DIETHYLNITROSAMINE, 55-18-5, Dose [Inhibitor]: 0, 15 G/L IN DRINKING WATER FOR DURATION OF STUDY BEGINNING 1 D PRIOR TO FIRST CARCINOGEN DOSE (STUDY DURATION: 6 MO), Route [Inhibitor]: ORAL, Species: RAT, Strain/Sex: BD6/FEMALE, Target Tissue: Type of Lesion: LIVER: TUMOR, Dose [Carcinogen]: 80 MG/KG BW 1/WK FOR 10 WK, Promoter: NONE USED): 100%, 92%, 8%, not significant | tumour outcome (control, treated, inhibition, significance) (Carcinogen: DIETHYLNITROSAMINE, 55-18-5, Dose [Inhibitor]: 0, 15 G/L IN DRINKING WATER FOR DURATION OF STUDY BEGINNING 2 D POST CARCINOGEN TREATMENT (STUDY DURATION: 6 MO), Route [Inhibitor]: ORAL, Species: RAT, Strain/Sex: BD6/FEMALE, Target Tissue: Type of Lesion: ESOPHAGUS: TUMOR, Dose [Carcinogen]: 80 MG/KG BW 1/WK FOR 10 WK, Promoter: NONE USED): 35%, 28%, 20%, not significant | tumour outcome (control, treated, inhibition, significance) (Carcinogen: DIETHYLNITROSAMINE, 55-18-5, Dose [Inhibitor]: 0, 15 G/L IN DRINKING WATER FOR DURATION OF STUDY BEGINNING 2 D POST CARCINOGEN TREATMENT (STUDY DURATION: 6 MO), Route [Inhibitor]: ORAL, Species: RAT, Strain/Sex: BD6/FEMALE, Target Tissue: Type of Lesion: LIVER: TUMOR, Dose [Carcinogen]: 80 MG/KG BW 1/WK FOR 10 WK, Promoter: NONE USED): 100%, 100%, 0%, not significant | tumour outcome (control, treated, inhibition, significance) (Carcinogen: DIETHYLSTILBESTROL, 56-53-1, Dose [Inhibitor]: 1 G/KG OR 2.5 G/KG OF DIET BEGINNING 2 D PRIOR TO FIRST CARCINOGEN IMPLANT AND CONTINUING FOR DURATION OF STUDY (STUDY D, Route [Inhibitor]: ORAL, Species: HAMSTER, Strain/Sex: SYRIAN/MALE, Target Tissue: Type of Lesion: KIDNEY: CARCINOMA, Dose [Carcinogen]: 90% OF 40 MG PELLET (OTHER 10% CHOLESTEROL) 2 D AFTER START OF AGENT TREATMENT AND AGAIN 3 MO LATER, Promoter: NONE USED): 11/13 (85%), 14/29 (48%), 44%, p<0.05 | tumour outcome (control, treated, inhibition, significance) (Carcinogen: DIETHYNITROSAMINE, 55-18-5, Dose [Inhibitor]: 0, 3 G/L IN DRINKING WATER FOR DURATION OF STUDY BEGINNING 2 D POST CARCINOGEN TREATMENT (STUDY DURATION: 6 MO), Route [Inhibitor]: ORAL, Species: RAT, Strain/Sex: BD6/FEMALE, Target Tissue: Type of Lesion: LIVER: TUMOR, Dose [Carcinogen]: 80 MG/KG BW 1/WK FOR 10 WK, Promoter: NONE USED): 100%, 100%, 0%, not significant | tumour outcome (control, treated, inhibition, significance) (Carcinogen: ETHYLUREA, 625-52-5, SODIUM NITRITE, 7632-00-0, Carcinogen: ETHYLUREA, 625-52-5, SODIUM NITRITE, 7632-00-0, Dose [Inhibitor]: 200 MG/KG BW ADMINISTERED INTRAGASTRICALLY ONCE ON D 15 OF GESTATION SIMULTANEOUSLY WITH CARCINOGEN TREATMENT (STUDY DUR, Route [Inhibitor]: TRANSPLACENTAL, Species: HAMSTER, Strain/Sex: SYRIAN/FEMALE, Target Tissue: Type of Lesion: PERIPHERAL NERVOUS SYSTEM: NEOPLASM, Dose [Carcinogen]: 200 MG ETHYLUREA/KG BW AND 100 MG SODIUM NITRITE/KG BW IG ONCE, Promoter: NONE USED): 9/18 (50%), 0/18 (0%), 100%, not calculated | tumour outcome (control, treated, inhibition, significance) (Carcinogen: ETHYLUREA, 625-52-5, SODIUM NITRITE, 7632-00-0, Carcinogen: ETHYLUREA, 625-52-5, SODIUM NITRITE, 7632-00-0, Dose [Inhibitor]: 200 MG/KG BW ADMINISTERED INTRAGASTRICALLY ONCE ON D 15 OF GESTATION SIMULTANEOUSLY WITH CARCINOGEN TREATMENT (STUDY DUR, Route [Inhibitor]: TRANSPLACENTAL, Species: HAMSTER, Strain/Sex: SYRIAN/MALE, Target Tissue: Type of Lesion: PERIPHERAL NERVOUS SYSTEM: NEOPLASM, Dose [Carcinogen]: 200 MG ETHYLUREA/KG BW AND 100 MG SODIUM NITRITE/KG BW IG ONCE, Promoter: NONE USED): 6/18 (33%), 0/24 (0%), 100%, not calculated | tumour outcome (control, treated, inhibition, significance) (Carcinogen: FIBERGLASS DUST, Dose [Inhibitor]: 400 MG/KG BW 1/3 D FOR 10 TREATMENTS STARTING 3 D POST CARCINOGEN TREATMENT (STUDY DURATION: 90 D), Route [Inhibitor]: INTRAPERITONEAL, Species: MOUSE, Strain/Sex: STRAIN-A/MALE, Target Tissue: Type of Lesion: LUNG: TUMOR, Dose [Carcinogen]: 300 MG IN 100 G OF STERILIZED PINE SAWDUST BEDDING FOR 30 D, Promoter: NONE USED): 6/12 (50%), 1/12 (8%), 84%, not calculated | tumour outcome (control, treated, inhibition, significance) (Carcinogen: N,N-DIETHYLNITROSAMINE, 55-18-5, Dose [Inhibitor]: 4.5 MG/100 KG DIET FOR 58 WK STARTING SIMULTANEOUSLY WITH CARCINOGEN AND PROMOTER TREATMENT AND CONTINUING FOR DURATION, Route [Inhibitor]: ORAL, Species: HAMSTER, Strain/Sex: SYRIAN/MALE, Target Tissue: Type of Lesion: LARYNX: TUMORS, Dose [Carcinogen]: 10 MG (TOTAL DOSE) IN 0.9% SALINE 1/WK FOR 12 WK, Promoter: CIGARETTE SMOKE): 20/30 (67%), 17/30 (57%), 15%, not significant | tumour outcome (control, treated, inhibition, significance) (Carcinogen: N,N-DIETHYLNITROSAMINE, 55-18-5, Dose [Inhibitor]: 4.5 MG/100 KG DIET FOR 58 WK STARTING SIMULTANEOUSLY WITH CARCINOGEN AND PROMOTER TREATMENT AND CONTINUING FOR DURATION, Route [Inhibitor]: ORAL, Species: HAMSTER, Strain/Sex: SYRIAN/MALE, Target Tissue: Type of Lesion: NASAL CAVITY: TUMORS, Dose [Carcinogen]: 10 MG (TOTAL DOSE) IN 0.9% SALINE 1/WK FOR 12 WK, Promoter: CIGARETTE SMOKE): 14/29 (48%), 8/30 (27%), 44%, not significant | tumour outcome (control, treated, inhibition, significance) (Carcinogen: N,N-DIETHYLNITROSAMINE, 55-18-5, Dose [Inhibitor]: 4.5 MG/100 KG DIET FOR 58 WK STARTING SIMULTANEOUSLY WITH CARCINOGEN AND PROMOTER TREATMENT AND CONTINUING FOR DURATION, Route [Inhibitor]: ORAL, Species: HAMSTER, Strain/Sex: SYRIAN/MALE, Target Tissue: Type of Lesion: TRACHEA: TUMORS, Dose [Carcinogen]: 10 MG (TOTAL DOSE) IN 0.9% SALINE 1/WK FOR 12 WK, Promoter: CIGARETTE SMOKE): 30/30 (100%), 29/30 (97%), 3%, not significant | tumour outcome (control, treated, inhibition, significance) (Carcinogen: N-(4-(5-NITRO-2-FURYL)-2-THIAZOLYL)FORMAMIDE, 24554-26-5, Dose [Inhibitor]: 250 MG/100 CC DRINKING WATER STARTING SIMULTANEOUSLY WITH CARCINOGEN TREATMENT AND CONTINUING FOR DURATION OF STUDY (STU, Route [Inhibitor]: ORAL, Species: MOUSE, Strain/Sex: C3H/FEMALE, Target Tissue: Type of Lesion: URINARY BLADDER: TRANSITIONAL CELL CARCINOMA, Dose [Carcinogen]: 0.1% IN DIET FOR DURATION OF STUDY, Promoter: NONE USED): 41/41 (100%), 12/13 (92%), 8%, p<0.7
